Measured values from the CheMixHub viscosity set.

Experiment: xn = mol fraction of the nth substance listed

CCN(CC)S(C)(=O)=O + CCCCO
303.15 K, 101.33 kPa
Settings | viscosity [mPa·s]
x1 = 0.0631 | 20450
x1 = 0.1404 | 19420
x1 = 0.2197 | 19180
x1 = 0.2937 | 19420
x1 = 0.3626 | 19850
x1 = 0.4515 | 20780
x1 = 0.5227 | 21750
x1 = 0.6053 | 23400
x1 = 0.6908 | 25500
x1 = 0.7579 | 27420
x1 = 0.8437 | 30890
x1 = 0.9281 | 35520

O=C(O)C=Cc1ccccc1 + CCCCO
viscosity [mPa·s]
Settings | x1 = 0.0728 | x1 = 0.0959 | x1 = 0.114
308.15 K, 101.33 kPa | 2.48 | – | –
313.15 K, 101.33 kPa | 2.19 | – | –
318.15 K, 101 kPa | 1.932 | 2.073 | 2.18
318.15 K, 101.33 kPa | 1.932 | 2.073 | –
323.15 K, 101.33 kPa | 1.712 | 1.838 | –

CCCCC + CCCO
298.15 K, 101.33 kPa
Settings | viscosity [mPa·s]
x2 = 0.0291 | 0.242
x2 = 0.0777 | 0.256
x2 = 0.1952 | 0.29
x2 = 0.3332 | 0.357
x2 = 0.403 | 0.41
x2 = 0.4771 | 0.484
x2 = 0.6076 | 0.666
x2 = 0.7373 | 0.949
x2 = 0.8545 | 1.333
x2 = 0.9586 | 1.778

CCCCCCCCn1cc[n+](C)c1.O=[N+]([O-])[O-] + CCCO
101 kPa
Settings | viscosity [mPa·s]
293.15 K, x2 = 0.107 | 510.9
298.15 K, x2 = 0.258 | 191.5

CCCCCCCO + CCCO
viscosity [mPa·s], 101 kPa
Settings | 298.15 K | 308.15 K | 318.15 K
x2 = 0.05 | 5.555 | 4.09 | 3.044
x2 = 0.1 | 5.333 | 3.923 | 2.935
x2 = 0.15 | 5.11 | 3.762 | 2.83
x2 = 0.2 | 4.888 | 3.607 | 2.728
x2 = 0.25 | 4.667 | 3.456 | 2.627
x2 = 0.3 | 4.449 | 3.309 | 2.528
x2 = 0.35 | 4.235 | 3.166 | 2.429
x2 = 0.4 | 4.026 | 3.027 | 2.331
x2 = 0.45 | 3.822 | 2.89 | 2.234
x2 = 0.5 | 3.623 | 2.756 | 2.136
x2 = 0.55 | 3.431 | 2.624 | 2.039
x2 = 0.6 | 3.243 | 2.494 | 1.942
x2 = 0.65 | 3.061 | 2.364 | 1.845
x2 = 0.7 | 2.882 | 2.236 | 1.748
x2 = 0.75 | 2.707 | 2.107 | 1.654
x2 = 0.8 | 2.534 | 1.979 | 1.56
x2 = 0.85 | 2.362 | 1.849 | 1.47
x2 = 0.9 | 2.189 | 1.719 | 1.382
x2 = 0.95 | 2.013 | 1.587 | 1.299
